According to patent EP4177246A1, “FUSED OXAZEPINES AS INHIBITORS OF PEROXIREDOXINS” (Centro Atlántico del Medicamento, SA, priority 2021, dated 2023):

Legend:
K562 = assay: MTT cell viability assay, K562 cells; type: cell-based; conditions: Homo sapiens, 48 h drug exposure
Summary of the method: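 Human CML-derived K562 cells seeded at 1000-5000/well with 10% FBS, treated after 24 h with compound (10 to 0,01 µM) or 0.05% DMSO vehicle for 48 h. MTT (0.3 mg/ml) added 2-4 h at 37 °C, formazan dissolved in DMSO, OD 595 nm; IC50 from non-linear regression, 3 replicates.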

HEL 92.1.7 = assay: MTT cell viability assay, HEL cells; type: cell-based; conditions: Homo sapiens, 48 h drug exposure
Summary of the method: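 Human erythroleukemia HEL 92.1.7 cells, 1000-5000 cells/well in 10% FBS medium, treated 24 h after seeding with compound (10 to 0,01microM) or 0.05% DMSO for 48 h. MTT (0.3 mg/ml) 2-4h at 37 °C, OD 595 nm; IC50 by non-linear regression of log concentration vs normalized response, 3 replicates.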

MDA-MB-231 = assay: MTT cell viability assay, MDA-MB-231 cells; type: cell-based, human; conditions: Homo sapiens, 48 h drug exposure
Summary of the method: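 MDA-MB-231 cells seeded in FBS-supplemented medium, treated after 24 h with compound (10 to 0,01 µM; vehicle 0.05% DMSO) for 48 h at 37 °C. MTT (0.3 mg/ml) added for 2-4 h, formazan dissolved in DMSO, OD read at 595 nm. IC50 from non-linear regression of log concentration vs normalized response.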

PANC-1 = assay: MTT cell viability assay, PANC-1 cells; type: cell-based; conditions: Homo sapiens, 48 h drug exposure
Protocol: PANC-1 [American Type Culture Collection (ATCC) reference number CRL-1469]. This a human cancer cell line derived from the pancreas of a person.
(§1) Cell viability was assayed by measuring the mitochondrial reduction of the tetrazolium salt 3-(4,5-methyltiazol-2yl)-2,5diphenyl-tetrazolium bromide] (MTT) (Applichen; A2231,0010) [Mosmann T. J Immunol Methods. 1983 16;65(1-2):55-63 (ref. 36); Chuan Y-C et al 2010. Oncogene. 29 (10), 1531-1542 (ref. 37)]. Cells were seeded in 96-well plates in medium (either RPMI, DMEM or McCoys depending on the recommendations from the ATCC) supplemented with 10% FBS (Lonza Cat. N°: 14-502F), 2mM L-Glut (Lonza Cat. N°: BE17-605E) and 100U/ml PEST (Lonza Cat. N°: DE17-605E) at a cell density of 1000-5000 cells/well (96 well plate). Cells were seeded at a density according to their exponential growth phase (normally 1000 to 5000/well). The cells were cultured at 37 °C in the dark in air containing 5% CO2. After 24h either vehicle (0.05% DMSO) or drug were added to culture medium at the indicated concentrations (10 to 0,01microM). After another 48 h, MTT (0.3 mg/ml) was added to cells, followed by incubation for 2-4h at 37 °C in the dark. The medium was then removed and the precipitated formazan was solubilized by the addition of DMSO (200 µL).
(§2) The optical density was measured at 595 nm with the iMark Microplate Reader (BioRad, USA). Data was expressed as percent growth above the level in controls and the results in figures were plotted as means ± SEM of each test point from 3 replicates.
(§3) Statistical analysis. The concentration of drug that provokes 50% reduction of cell viability (IC50) was determined by using non-linear regression analysis and data were fitted to a log concentration vs normalized response curve in GraphPad software v5 (San Diego, CA).

MCF-7 = assay: MTT cell viability assay, MCF-7 cells; type: cell-based; conditions: Homo sapiens, MCF7, 48 h drug exposure
Protocol: as §1, §2, §3

[1] = test system: JNK, p38, AKT, ERK1/2, STAT3; assay: Immunoblot of phosphorylated MAPKs, STAT3 and Akt in treated TNBC cells; type: cell-based, human; conditions: MDA-MB-231 5 µM, 1 h, BT-549 1 µM, 3 h
Protocol: MDA-MB-231 cells were incubated with compound 24 (5 µM, 1 h), then washed with cold PBS-vanadate (1 mM). The same process was done with BT-549 cells with the exception that the cells were incubated with compound 24 at 1 µM of 3 h. PRDX1 knockdown cells, or compound 24 treated cells, were then lysed with cold RIPA containing protease and phosphatase inhibitors or with a buffer containing 20 mM Tris-HCI, pH = 7, 140 mM NaCl, 50 mM EDTA, 10% glycerol, 1% NP-40, and protease and phosphatase inhibitors. Lysates were centrifuged at 20,000 × g, at 4 °C for 10 min, and supernatants were collected. Protein concentration of lysis extracts was measured by BCA. Electrophoresis sample buffer containing 10% β-mercaptoethanol was added to 60 µg of extracts. In the case of non-reducing electrophoresis, cells were incubated with cold PBS containing 25 mM NEM for 30 min before lysis, and β-mercaptoethanol was omitted in the electrophoresis sample buffer. Samples were separated by sodium dodecyl sulfate - polyacrylamide gel electrophoresis (SDS-PAGE) and transferred onto nitrocellulose or PVDF (polyvinylidene difluoride) membranes. […] Protein bands were visualized with the Immun-Star Western chemiluminescence kit (Bio-rad) using the ChemiDoc XRS System and the image analysis program Quantity One (Bio-Rad). […]

IC50 (K562): 0.1 µM
IC50 (MDA-MB-231): 0.09 µM
IC50 (PANC-1): 0.32 µM
IC50 (MCF-7): 1.72 µM
Compound: O=C1C2=C(C(=O)c3c(O)ccc(O)c31)N(c1cccnc1)Cc1ccccc1O2 [Compound 24, 7,10-dihydroxy-12-(pyridin-3-yl)-12,13-dihydrobenzo[f]naphtho[2,3-b][1,4]oxazepine-6,11-dione]
IC50 (HEL 92.1.7): 0.09 µM
activation of STAT3 [1]: a decrease in the activation of STAT3
levels of activated JNK, p38, AKT and ERK1/2 [1]: an increase in the levels of activated JNK, p38, AKT and ERK1/2
